For one test, the target named is Cathepsin G (Homo sapiens, UniProt P08311). The test is described as follows: biochemical.
The target of a further test is Chymase (Homo sapiens, UniProt P23946). Put plainly: biochemical.
The test system of another test is V2R versus V1a. To be noted: cited from earlier work.
Another test has as its target Caspase 6 (Homo sapiens, UniProt P55212). Put plainly: biochemical.
For the next test, the target named is Caspase 7 (Homo sapiens, UniProt P55210). It is filed as biochemical. The note with it: read-out: Compound IC50.
Another test addresses Cathepsin L (Homo sapiens, UniProt P07711). Format: biochemical. The note with it: read-out: Compound IC50.
Another test has as its target Cathepsin V (Homo sapiens, UniProt O60911). It is filed as biochemical. To be noted: read-out: Compound IC50.
A further test addresses Papain (Carica papaya, UniProt P00784). The test is described as follows: biochemical.
The target in a further test is Cathepsin H (Homo sapiens, UniProt P09668). It is filed as biochemical. The note with it: read-out: Compound IC50.
The next test concerns the target Cathepsin S (Homo sapiens, UniProt P25774). Format: biochemical. To be noted: read-out: Compound IC50.
Another test has as its target Cathepsin B (Homo sapiens, UniProt P07858). It is filed as biochemical. To be noted: read-out: Compound IC50.
In another test the target is Cathepsin C (Homo sapiens, UniProt P53634). The test is described as follows: biochemical.
Another test concerns the target Caspase 8 (Homo sapiens, UniProt Q14790). Format: biochemical. The note with it: read-out: Compound IC50.
For a further test, the target named is Caspase 1 (Homo sapiens, UniProt P29466). The test is described as follows: biochemical.
Another test has as its target Caspase 2 (Homo sapiens, UniProt P42575). The test is described as follows: biochemical.
A further test concerns the target Caspase 4 (Homo sapiens, UniProt P49662). Format: biochemical. To be noted: read-out: Compound IC50.
Another test has as its target Caspase 11 (Mus musculus, UniProt P70343). Put plainly: biochemical.
The target in a further test is Caspase 9 (Homo sapiens, UniProt P55211). The test is described as follows: biochemical.
A further test has as its target Caspase 10 (Homo sapiens, UniProt Q92851). The test is described as follows: biochemical.
A further test has as its target Caspase 5 (Homo sapiens, UniProt P51878). Put plainly: biochemical.
A further test concerns the target Proteinase A (Bacillus licheniformis, UniProt P00780). The test is described as follows: biochemical. The arrangement: species or system Bacillus Iicheniformis.
The next test addresses Kallikrein 1 (Homo sapiens, UniProt P06870). The test is described as follows: biochemical.
The next test concerns the target Tryptase g1. Format: biochemical, Human. The note with it: read-out: Compound IC50.
Test [1] deals with human Arginine Vasopressin Receptor 2A (AVPR2A) (Homo sapiens, UniProt P30518). Put plainly: cell-based.
The target in the next test is Kallikrein 7 (Homo sapiens, UniProt P49862). Put plainly: biochemical.
For the next test, the target named is Plasma Kallikrein (Homo sapiens, UniProt P03952). Put plainly: biochemical.
The target in a further test is Matriptase 2 (Homo sapiens, UniProt Q8IU80). The test is described as follows: biochemical.
A further test deals with Kallikrein 5 (Homo sapiens, UniProt Q9Y337). Put plainly: biochemical.
The target of another test is Trypsin (Bos taurus, UniProt P00760). The test is described as follows: biochemical. Set-up: species or system Bovine.
The target in another test is Tryptase b2 (Homo sapiens, UniProt P20231). The test is described as follows: biochemical.
Test [2] concerns 156 other GPCRs, including V1aR, V1bR and OTR. The note with it: cited from earlier work.
Another test concerns the target Elastase (Homo sapiens, UniProt P08246). Put plainly: biochemical.
Another test addresses Chymotrypsin (Bos taurus, UniProt P00766). The test is described as follows: biochemical. Set-up: species or system Bovine.
Test [3] concerns DDAVP-induced hyponatremia in Sprague-Dawley rats. To be noted: rat, in vivo.
In the next test the target is Kallikrein 12 (Homo sapiens, UniProt Q9UKR0). It is filed as biochemical. To be noted: read-out: Compound IC50.
A further test deals with Plasmin (Homo sapiens, UniProt P00747). Format: biochemical. The note with it: read-out: Compound IC50.
A further test addresses Urokinase (Homo sapiens, UniProt P00749). It is filed as biochemical. To be noted: read-out: Compound IC50.
The next test addresses FXa (Homo sapiens, UniProt P00742). It is filed as biochemical. The note with it: read-out: Compound IC50.
The target of a further test is Kallikrein 14 (Homo sapiens, UniProt Q9P0G3). Format: biochemical. The note with it: read-out: Compound IC50.
The target of a further test is Kallikrein 13 (Homo sapiens, UniProt Q9UKR3). Format: biochemical. To be noted: read-out: Compound IC50.
In a further test the target is Thrombin A (Homo sapiens, UniProt P00734). It is filed as biochemical. The note with it: read-out: Compound IC50.
For test [4], the target named is human vasopressin-2 receptor (V2R) (Homo sapiens, UniProt P30518). The test is described as follows: biochemical. Format: binding.

Like-named read-outs stand apart in the source and are kept apart here. Bridge positions count the residues as written; N and C are the ends. Ends that are not written are not given here. Peptide text beside a SMILES is read from it. Bounds are passed on as bounds.

Sequence of human vasopressin-2 receptor (V2R) (P30518 whole entry): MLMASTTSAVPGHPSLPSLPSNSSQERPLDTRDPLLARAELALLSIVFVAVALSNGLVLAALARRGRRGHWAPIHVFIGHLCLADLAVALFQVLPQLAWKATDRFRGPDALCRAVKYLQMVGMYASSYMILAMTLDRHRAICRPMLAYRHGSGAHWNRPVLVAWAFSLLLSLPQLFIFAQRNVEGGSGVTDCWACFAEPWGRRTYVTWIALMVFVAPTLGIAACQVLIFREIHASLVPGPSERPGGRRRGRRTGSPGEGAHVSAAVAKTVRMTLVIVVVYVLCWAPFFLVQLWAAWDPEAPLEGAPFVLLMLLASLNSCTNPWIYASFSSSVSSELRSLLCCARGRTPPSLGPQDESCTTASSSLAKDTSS
Sequence of Caspase 2 (P42575 167-333): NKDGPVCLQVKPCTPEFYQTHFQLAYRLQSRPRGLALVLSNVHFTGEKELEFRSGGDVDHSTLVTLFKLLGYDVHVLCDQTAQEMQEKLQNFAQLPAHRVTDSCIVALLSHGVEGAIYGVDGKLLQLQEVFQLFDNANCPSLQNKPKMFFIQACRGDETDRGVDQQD
Sequence of Caspase 2 (P42575 348-452): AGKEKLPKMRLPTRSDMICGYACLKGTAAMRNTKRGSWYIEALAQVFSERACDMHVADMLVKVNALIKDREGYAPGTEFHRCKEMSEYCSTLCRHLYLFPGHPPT
Sequence of Chymase (P23946 22-247): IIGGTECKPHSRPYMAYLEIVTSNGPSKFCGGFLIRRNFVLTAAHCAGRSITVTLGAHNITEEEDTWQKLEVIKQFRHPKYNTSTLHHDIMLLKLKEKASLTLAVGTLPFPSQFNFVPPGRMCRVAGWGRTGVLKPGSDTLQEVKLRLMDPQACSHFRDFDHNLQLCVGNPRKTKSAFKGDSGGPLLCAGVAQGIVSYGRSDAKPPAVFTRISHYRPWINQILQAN
Sequence of Elastase (P08246 30-247): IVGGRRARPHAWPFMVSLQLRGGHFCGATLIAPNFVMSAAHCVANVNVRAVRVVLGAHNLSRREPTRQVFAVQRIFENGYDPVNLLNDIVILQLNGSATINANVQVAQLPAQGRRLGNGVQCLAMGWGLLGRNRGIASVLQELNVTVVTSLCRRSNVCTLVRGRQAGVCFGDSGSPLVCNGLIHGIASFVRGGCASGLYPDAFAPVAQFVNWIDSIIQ
Sequence of Papain (P00784 134-345): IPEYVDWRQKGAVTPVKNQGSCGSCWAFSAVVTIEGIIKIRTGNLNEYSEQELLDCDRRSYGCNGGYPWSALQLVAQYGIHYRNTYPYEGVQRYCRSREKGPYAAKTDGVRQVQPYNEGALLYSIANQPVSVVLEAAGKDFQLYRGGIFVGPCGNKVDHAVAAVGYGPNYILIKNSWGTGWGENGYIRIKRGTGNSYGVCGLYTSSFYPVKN
Sequence of Caspase 5 (P51878 347-434): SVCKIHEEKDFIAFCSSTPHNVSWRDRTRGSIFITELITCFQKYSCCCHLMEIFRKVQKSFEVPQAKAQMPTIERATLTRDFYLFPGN
Sequence of Caspase 5 (P51878 138-327): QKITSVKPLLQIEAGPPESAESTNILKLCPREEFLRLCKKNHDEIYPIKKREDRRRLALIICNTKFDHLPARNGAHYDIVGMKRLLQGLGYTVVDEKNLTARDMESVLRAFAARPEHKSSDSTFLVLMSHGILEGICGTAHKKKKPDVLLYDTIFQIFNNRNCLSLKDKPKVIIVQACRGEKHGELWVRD
Sequence of Cathepsin C (P53634 25-143): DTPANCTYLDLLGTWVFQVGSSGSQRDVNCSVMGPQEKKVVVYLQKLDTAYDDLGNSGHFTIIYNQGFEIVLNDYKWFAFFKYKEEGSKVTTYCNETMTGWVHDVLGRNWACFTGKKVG
Sequence of Cathepsin C (P53634 231-394): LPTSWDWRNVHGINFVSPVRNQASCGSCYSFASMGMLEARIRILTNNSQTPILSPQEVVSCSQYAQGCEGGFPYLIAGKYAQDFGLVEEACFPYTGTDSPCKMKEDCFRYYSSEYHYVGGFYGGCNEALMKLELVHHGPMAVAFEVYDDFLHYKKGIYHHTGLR
Sequence of Cathepsin C (P53634 395-463): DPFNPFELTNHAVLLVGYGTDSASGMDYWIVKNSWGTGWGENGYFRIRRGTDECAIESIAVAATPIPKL
Sequence of Plasma Kallikrein (P03952 20-390): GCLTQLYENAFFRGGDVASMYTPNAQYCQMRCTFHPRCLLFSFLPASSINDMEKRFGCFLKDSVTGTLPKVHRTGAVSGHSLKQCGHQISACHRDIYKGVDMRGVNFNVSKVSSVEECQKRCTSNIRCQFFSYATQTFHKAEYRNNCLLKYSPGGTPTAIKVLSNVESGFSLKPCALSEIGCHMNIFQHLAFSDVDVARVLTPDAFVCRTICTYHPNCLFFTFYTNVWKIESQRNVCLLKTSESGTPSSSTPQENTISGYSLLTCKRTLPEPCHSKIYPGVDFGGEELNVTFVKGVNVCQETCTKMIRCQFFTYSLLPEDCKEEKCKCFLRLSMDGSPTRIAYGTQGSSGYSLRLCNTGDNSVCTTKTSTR
Sequence of Plasma Kallikrein (P03952 391-638): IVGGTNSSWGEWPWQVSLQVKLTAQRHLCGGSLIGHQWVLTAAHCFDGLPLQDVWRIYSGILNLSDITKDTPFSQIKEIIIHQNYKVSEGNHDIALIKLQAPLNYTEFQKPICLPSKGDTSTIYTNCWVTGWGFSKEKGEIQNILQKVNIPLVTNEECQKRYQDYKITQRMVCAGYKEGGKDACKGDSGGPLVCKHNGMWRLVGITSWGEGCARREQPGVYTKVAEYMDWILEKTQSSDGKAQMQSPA
Sequence of Kallikrein 7 (P49862 30-252): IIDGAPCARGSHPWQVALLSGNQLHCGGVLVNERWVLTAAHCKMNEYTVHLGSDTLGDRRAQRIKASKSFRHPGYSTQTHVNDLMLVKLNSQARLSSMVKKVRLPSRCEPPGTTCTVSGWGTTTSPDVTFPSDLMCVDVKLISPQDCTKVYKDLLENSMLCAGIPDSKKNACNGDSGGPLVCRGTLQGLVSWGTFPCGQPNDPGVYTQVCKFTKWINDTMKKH
Sequence of Caspase 11 (P70343 102-373): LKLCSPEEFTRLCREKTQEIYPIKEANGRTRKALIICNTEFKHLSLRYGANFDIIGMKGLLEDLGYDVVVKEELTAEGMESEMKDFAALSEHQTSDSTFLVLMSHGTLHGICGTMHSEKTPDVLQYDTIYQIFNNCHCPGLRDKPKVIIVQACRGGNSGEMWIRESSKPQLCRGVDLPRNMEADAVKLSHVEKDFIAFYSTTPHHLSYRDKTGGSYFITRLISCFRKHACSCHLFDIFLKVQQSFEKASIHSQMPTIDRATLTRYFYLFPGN
Sequence of Cathepsin G (P08311 21-244): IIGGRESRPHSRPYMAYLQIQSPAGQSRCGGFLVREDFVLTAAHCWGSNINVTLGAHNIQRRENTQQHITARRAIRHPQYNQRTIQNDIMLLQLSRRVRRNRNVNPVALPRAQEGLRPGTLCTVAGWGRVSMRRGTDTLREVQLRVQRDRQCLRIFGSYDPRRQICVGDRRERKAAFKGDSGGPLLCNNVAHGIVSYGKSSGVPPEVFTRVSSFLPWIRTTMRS
Sequence of Caspase 6 (P55212 24-293 limits assumed): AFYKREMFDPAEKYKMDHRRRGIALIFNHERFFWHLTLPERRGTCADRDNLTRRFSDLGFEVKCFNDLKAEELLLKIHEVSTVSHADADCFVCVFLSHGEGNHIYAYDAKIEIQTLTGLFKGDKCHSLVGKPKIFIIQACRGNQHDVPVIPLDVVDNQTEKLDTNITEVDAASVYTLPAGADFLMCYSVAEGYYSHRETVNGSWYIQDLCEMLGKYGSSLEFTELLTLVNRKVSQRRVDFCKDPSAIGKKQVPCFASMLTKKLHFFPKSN
Sequence of Matriptase 2 (Q8IU80 78-811): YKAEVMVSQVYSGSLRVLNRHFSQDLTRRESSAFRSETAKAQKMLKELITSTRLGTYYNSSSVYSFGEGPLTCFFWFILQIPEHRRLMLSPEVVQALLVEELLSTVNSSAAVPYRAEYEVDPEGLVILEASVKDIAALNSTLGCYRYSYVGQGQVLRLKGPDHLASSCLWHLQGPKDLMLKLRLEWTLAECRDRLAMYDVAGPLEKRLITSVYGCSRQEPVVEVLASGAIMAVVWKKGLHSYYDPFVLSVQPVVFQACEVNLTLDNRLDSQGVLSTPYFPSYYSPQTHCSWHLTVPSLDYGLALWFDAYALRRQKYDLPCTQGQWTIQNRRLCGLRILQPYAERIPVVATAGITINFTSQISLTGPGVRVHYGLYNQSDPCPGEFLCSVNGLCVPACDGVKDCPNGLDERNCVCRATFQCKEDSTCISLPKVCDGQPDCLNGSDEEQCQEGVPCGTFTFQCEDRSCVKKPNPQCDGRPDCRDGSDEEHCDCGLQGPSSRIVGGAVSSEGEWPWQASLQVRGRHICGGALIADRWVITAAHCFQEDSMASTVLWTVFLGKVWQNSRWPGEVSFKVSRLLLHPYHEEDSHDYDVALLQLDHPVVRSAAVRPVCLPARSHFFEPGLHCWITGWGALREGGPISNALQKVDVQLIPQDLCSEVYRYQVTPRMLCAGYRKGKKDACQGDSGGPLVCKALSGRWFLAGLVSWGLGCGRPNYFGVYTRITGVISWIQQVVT
Sequence of Caspase 9 (P55211 131-416): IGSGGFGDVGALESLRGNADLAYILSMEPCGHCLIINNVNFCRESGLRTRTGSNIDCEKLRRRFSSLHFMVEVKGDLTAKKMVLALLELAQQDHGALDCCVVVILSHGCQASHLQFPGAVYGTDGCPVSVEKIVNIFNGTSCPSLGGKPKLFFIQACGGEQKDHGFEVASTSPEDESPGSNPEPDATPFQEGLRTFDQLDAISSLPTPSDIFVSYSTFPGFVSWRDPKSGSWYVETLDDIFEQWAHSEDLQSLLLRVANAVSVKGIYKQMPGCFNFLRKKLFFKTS

Regarding `CC(C)C[C@H](NC(=O)[C@@H](NC(=O)N[C@@H](Cc1ccccc1)C(=O)O)[C@@H]1CCN=C(N)N1)C(=O)N[C@H](C=O)Cc1ccccc1` [Chymostatin], the IC50 on Cathepsin G came to 0.236 µM; at Chymase it was 0.0199 µM.
With `Cc1nc2c([nH]1)-c1ccccc1N(C(=O)c1ccc(NC(=O)c3ccccc3-c3ccccc3)cc1)CC2` [Conivaptan], in the test with V2R versus V1a, the V2/Vla selectivity index is 0.15.
Take `CC(=O)N[C@@H](CC(=O)O)C(=O)N[C@@H](CCC(=O)O)C(=O)N[C@H](C(=O)N[C@H](C=O)CC(=O)O)C(C)C` [DEVD-CHO]: the IC50 stood at 0.0265 µM on Caspase 6 (read-out: Compound IC50) and 0.00511 µM at Caspase 7.
Consider `CC(C)C[C@H](NC(=O)[C@H]1O[C@@H]1C(=O)O)C(=O)NCCCCN=C(N)N` [E64], for which the concentration for half-maximal inhibition (IC50) on Cathepsin L was found to be 0.00196 µM; at Cathepsin V, 0.0197 µM; at Papain (read-out: Compound IC50), 0.000118 µM; on Cathepsin H, 0.0671 µM; on Cathepsin S, 0.00543 µM; at Cathepsin B, 0.0051 µM. Moreover, the IC50 at Cathepsin C (read-out: Compound IC50) came out at 0.59 µM.
For the compound `CC[C@H](C)[C@H](NC(C)=O)C(=O)N[C@@H](CCC(=O)O)C(=O)N[C@H](C(=O)N[C@H](C=O)CC(=O)O)[C@@H](C)O` [IETD-CHO] (Ac-IETD-aldehyde), the IC50 at Caspase 8 was 0.00252 µM; on Caspase 1 (read-out: Compound IC50), 0.0893 µM; at Caspase 2 (read-out: Compound IC50) it was 0.646 µM; on Caspase 4, 2.18 µM; at Caspase 11 (read-out: Compound IC50), 0.934 µM; at Caspase 9 (read-out: Compound IC50), 0.0515 µM. Moreover, the results for the IC50 on Caspase 10 (read-out: Compound IC50) and on Caspase 5 (read-out: Compound IC50) were 0.0283 µM and 0.0383 µM, respectively.
With `CC(=O)N[C@@H](CC(C)C)C(=O)N[C@@H](CC(C)C)C(=O)N[C@H](C=O)CCCNC(=N)N` [Leupeptin], the figures for the 50% inhibitory concentration (IC50) against Proteinase A and on Kallikrein 1 were 31.5 µM and 0.296 µM, respectively.
As to `CCOc1ccc2c(c1)C1(CCC(OCCN3CCOCC3)CC1)C(=O)N2S(=O)(=O)c1ccc(C(=O)NC(C)(C)C)cc1OC` (stereo not drawn) [Satavaptan], the V2/Vla selectivity index in the test on V2R versus V1a is recorded as 112.
Turning to `CC[C@H](C)[C@@H]1NC(=O)[C@H]([C@@H](C)O)NC(=O)[C@H](CO)NC(=O)[C@H](Cc2ccccc2)NC(=O)[C@H](CCCNC(=N)N)NC(=O)[C@H](CC(N)=O)NC(=O)[C@H](C)NC(=O)[C@H](CC(N)=O)NC(=O)CNC(=O)[C@H](CCCCN)NC(=O)[C@@H]2CSSC[C@@H]3NC(=O)[C@@H]4CCCN4C(=O)CNC(=O)[C@@H]4CCCN4C(=O)[C@H](CCCCN)NC(=O)[C@H](C(C)C)NC(=O)[C@@H]4CCCN4C(=O)[C@H](CC(C)C)NC(=O)[C@H](CC(N)=O)NC(=O)[C@@H](NC(=O)[C@H](Cc4ccccc4)NC(=O)[C@H](CO)NC(=O)[C@@H]4CCCN4C(=O)[C@@H](N)CCCNC(=N)N)CSSC[C@@H](C(=O)N[C@H](C(=O)NCC(=O)O)C(C)C)NC(=O)[C@H]([C@@H](C)O)NC(=O)[C@H](CCCNC(=N)N)NC(=O)[C@H](CCCNC(=N)N)NC(=O)[C@H](CSSC[C@H](NC(=O)[C@H](CCCCN)NC(=O)[C@H](CC(N)=O)NC(=O)[C@H]([C@@H](C)O)NC(=O)[C@H](CCCCN)NC(=O)[C@H](CCC(N)=O)NC(=O)[C@H](CO)NC(=O)[C@H](Cc4ccc(O)cc4)NC(=O)[C@H](Cc4ccc(O)cc4)NC(=O)[C@H](Cc4ccccc4)NC(=O)[C@H](C)NC(=O)[C@H](CO)NC(=O)[C@H](Cc4ccccc4)NC(=O)[C@H](Cc4ccccc4)NC(=O)CNC(=O)[C@H](CC(N)=O)NC3=O)C(=O)N[C@@H](Cc3c[nH]cn3)C(=O)N[C@@H](CO)C(=O)N[C@@H](Cc3ccccc3)C(=O)N[C@@H]([C@@H](C)O)C(=O)N[C@@H](Cc3ccc(O)cc3)C(=O)NCC(=O)NCC(=O)N2)NC(=O)[C@H](CCCCN)NC(=O)[C@H](CCC(=O)O)NC1=O` [WT MQ1 peptide, mambaquaretin], the half-maximal inhibitory concentration (IC50) was > 50 µM on Caspase 6; > 50 µM on Tryptase g1; 0.192 µM in test [1]; 3.65 µM against Kallikrein 7; 3.89 µM on Plasma Kallikrein; 0.116 µM at Matriptase 2. Further, the IC50 against Papain came to 17.6 µM; against Kallikrein 5 it was 5.77 µM; against Cathepsin G, 8.54 µM; against Trypsin it was 3.69 µM; against Caspase 1, 37.1 µM; on Tryptase b2, 3.63 µM. In addition, the IC50 against Caspase 2 was 42.5 µM; at Elastase, > 50 µM; against Chymase, 18.2 µM; against Caspase 11 it was 14 µM; at Caspase 9, 8.94 µM; at Caspase 10 it was 9.33 µM. Further, the IC50 against Chymotrypsin is 2.74 µM; at Cathepsin C it was 45.9 µM; against Caspase 5, > 50 µM. Further, the “affinity for 156 other GPCRs” value in [2] is recorded as “no affinity at μM concentrations”.
Consider `Cc1ccccc1C(=O)Nc1ccc(C(=O)N2CCCC(O)c3cc(Cl)ccc32)c(C)c1` (stereo not drawn) [tolvaptan], for which the “plasmatic sodium concentration versus vehicle-treated group” value in test [3] is on record as “significantly different from values on the vehicle-treated group”.
For the compound “Gabexate mesylate [Gabexate mesylate (GM)]”, the IC50 at Tryptase g1 was found to be 0.0101 µM; on Kallikrein 7 (read-out: Compound IC50), 46.5 µM; on Kallikrein 12 it was 0.0654 µM; at Plasmin it was 0.344 µM; on Plasma Kallikrein (read-out: Compound IC50) it was 0.0303 µM; at Matriptase 2 (read-out: Compound IC50) it was 0.315 µM. Moreover, the IC50 at Kallikrein 5 (read-out: Compound IC50) was determined as 0.697 µM; at Trypsin (read-out: Compound IC50) it was 0.0112 µM; at Tryptase b2 (read-out: Compound IC50), 0.0198 µM; on Urokinase, 0.614 µM; on FXa it was 4.47 µM; at Elastase (read-out: Compound IC50) it was 0.216 µM. For the same compound, the IC50 was 0.672 µM on Kallikrein 14, 11.8 µM on Kallikrein 13 and 3.16 µM on Thrombin A.
Regarding “RPSFCNLPVAPGPCNGFFSAFYYSQKTNKCHSFTYGGCKGNANRFSTLEKCRRTCVG (disulfide 5-55, 14-38, 30-51) [K10A]”, the inhibitory constant (Ki) in [4] was determined as 0.00938 µM.
With “RPSFCNLPVEPGPCNGFFSAFYYSQKTNKCHSFTYGGCKGNANRFSTLEKCRRTCVG (disulfide 5-55, 14-38, 30-51) [K10E]”, in test [4], the Ki worked out at 0.337 µM.
Still for that read-out and setting: next, “RPSFCNLPVKPGPCNGFFSAFYYSQKTNKCHSFTYGGCKGAANRFSTIEKCRRTCVG (disulfide 5-55, 14-38, 30-51) [N41A]”: 0.00849 µM; “RPSFCNLPVKPGPCNGFFSAFYYSQKTNKCHSFTYGGCKGNANAFSTLEKCRRTCVG (disulfide 5-55, 14-38, 30-51) [R44A]”: 0.0133 µM; “RPSFCNLPVKPGPCNGFFSAFYYSQKTNKCHSFTYGGCKGNANEFSTLEKCRRTCVG (disulfide 5-55, 14-38, 30-51) [R44E]”: 0.0993 µM.

Values taken from patent US12595288B2 (priority 2020, dated 2026).
